Laboratory results reported in article PMC10044120, “Potent and selective covalent inhibition of the papain-like protease from SARS-CoV-2” (Nature Communications, 2023).
pEC50, pIC50: −log10 of the molar value. Like-named read-outs stand apart in the source and are kept apart here.

What was measured:
[1] = biological target: T1, PLpro from SARS-CoV-2 (Severe acute respiratory syndrome coronavirus 2, UniProt P0DTD1); test: biochemical; format: biochemical; conditions: 0.5 h
[2] = biological target: T1, PLpro from SARS-CoV-2; test: biochemical; format: biochemical; design: mean (kobs plot, Supplementary Figure 6 II): unit: min^-1
[3] = biological target: PLpro (Severe acute respiratory syndrome coronavirus 2, UniProt P0DTD1); test: Intact protein ESI-MS to assess covalent adduct formation; format: binding, SARS-CoV-2; design: unit not given here
[4] = biological target: SARS-CoV-2 PLpro (Severe acute respiratory syndrome coronavirus 2, UniProt P0DTD1); test: biochemical; conditions: PLpro 10 nM, ISG15-CHOP2
[5] = biological target: T2, USP8 (Homo sapiens, UniProt P40818); test: biochemical; conditions: USP8 10 nM, Ub-rhodamine110
T2 construct: USP2c, USP4, USP7, USP8c, USP15, USP30WT, and UCH-L1; purchased LifeSensors, Inc. (Malvern, PA)

[6] = biological target: T3, USP2 (Homo sapiens, UniProt O75604); test: biochemical; conditions: USP2 10 nM, Ub-rhodamine110
T3 construct: USP2c, USP4, USP7, USP8c, USP15, USP30WT, and UCH-L1; purchased LifeSensors, Inc. (Malvern, PA)

[7] = biological target: T4, UCHL1 (Homo sapiens, UniProt P09936); test: biochemical; conditions: UCHL1 10 nM, Ub-rhodamine110
T4 construct: purchased LifeSensors, Inc. (Malvern, PA)

[8] = tested on: SARS-CoV-2 USA-WA1/2020; test: CPE assay, neutral red, Vero E6 cells with 2 μM CP-100356, USA-WA1/2020; format: cell-based; conditions: for Percent Cytopathic Effect (Neutral Red): USA-WA1/2020
[9] = tested on: SARS-CoV-2 Omicron (B.1.1.529); test: CPE assay, neutral red, Vero E6 cells with 2 μM CP-100356, Omicron; format: cell-based; conditions: Severe acute respiratory syndrome coronavirus 2, Vero C1008
[10] = tested on: SARS-CoV-2 Omicron (B.1.1.529); test: microbe, parasite or virus in culture; format: cell-based; conditions: Severe acute respiratory syndrome coronavirus 2; Omicron (B1.1.529), Caco-2
[11] = tested on: Vero E6 cells
[12] = in vitro; conditions: African green monkey
[13] = in vitro; conditions: human
[14] = Pharmacokinetics in male ICR mice (IV and PO)
[15] = Metabolic stability in mouse liver S9 fraction; conditions: CD-1, mouse
[16] = Cytotoxicity in uninfected Vero E6 cells, CellTiter-Glo; conditions: African green monkey
[17] = tested on: Vero E6 cells; test: as above
[18] = male, ICR (CD-1), mouse, plasma, iv, 3 mg/kg

T2 sequence (P40818 777-1109): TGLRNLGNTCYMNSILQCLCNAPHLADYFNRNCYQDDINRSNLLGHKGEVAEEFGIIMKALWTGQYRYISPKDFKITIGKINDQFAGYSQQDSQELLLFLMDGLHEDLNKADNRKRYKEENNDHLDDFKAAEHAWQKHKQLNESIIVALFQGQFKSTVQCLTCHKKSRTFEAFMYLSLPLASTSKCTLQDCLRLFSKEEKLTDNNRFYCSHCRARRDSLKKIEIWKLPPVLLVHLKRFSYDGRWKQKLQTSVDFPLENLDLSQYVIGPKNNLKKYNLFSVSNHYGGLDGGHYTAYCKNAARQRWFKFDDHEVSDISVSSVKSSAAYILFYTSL
T4 sequence (P09936 whole entry): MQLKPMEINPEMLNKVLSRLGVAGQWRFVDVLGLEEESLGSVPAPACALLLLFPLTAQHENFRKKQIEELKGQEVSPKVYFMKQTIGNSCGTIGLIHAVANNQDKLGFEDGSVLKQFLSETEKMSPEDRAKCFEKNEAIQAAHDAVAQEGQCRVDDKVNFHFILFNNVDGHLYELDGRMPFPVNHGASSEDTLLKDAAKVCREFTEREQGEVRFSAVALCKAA
T3 sequence (O75604 267-599): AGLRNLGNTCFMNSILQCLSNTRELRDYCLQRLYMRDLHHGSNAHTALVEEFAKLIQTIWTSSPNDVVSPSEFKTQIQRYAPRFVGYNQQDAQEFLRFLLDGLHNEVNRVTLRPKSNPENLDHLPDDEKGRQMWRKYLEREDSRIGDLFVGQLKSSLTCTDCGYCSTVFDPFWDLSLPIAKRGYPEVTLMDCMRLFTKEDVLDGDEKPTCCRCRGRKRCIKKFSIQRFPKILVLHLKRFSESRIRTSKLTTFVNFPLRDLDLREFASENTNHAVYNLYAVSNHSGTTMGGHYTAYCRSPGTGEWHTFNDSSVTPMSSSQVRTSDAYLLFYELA

SMILES: COC(=O)/C=C/C(=O)NNC(=O)CCc1ccccc1C(=O)N[C@H](C)c1cccc2ccccc12 [Compound 7, methyl(R,E)-4-(2-(3-(2-((1-(naphthalen-1 yl)ethyl)carbamoyl)phenyl)propanoyl)hydrazineyl)-4-oxobut-2-enoate]
- remaining activity at 0.06 µM ([1]; 0.06 uM inhibitor): 66.6%
- remaining activity at 0.2 µM ([1]; 0.20 uM inhibitor): 17.4%
- remaining activity at 20.03 µM ([1]; 20.03 uM inhibitor): 2.85%
- remaining activity at 200 µM ([1]; 200.00 uM inhibitor, 30-min preincubation): 4.35%
- remaining activity at 0.06 µM ([1]; inhibitor 0.06 uM): 66.6%
- remaining activity at 0.2 µM ([1]; inhibitor 0.20 uM): 17.4%
- remaining activity at 20 µM ([1]; inhibitor 20.00 uM): 2.85%
- remaining activity at 200 µM ([1]; inhibitor 200.00 uM): 4.35%
- Kobs, mean ([2]; 0.10 uM): 0.00424 min⁻¹
- Kobs, mean ([2]; 0.20 uM): 0.03867 min⁻¹
- Kobs, mean ([2]; 0.30 uM): 0.09135 min⁻¹
- remaining activity at 0.1 µM ([2]; 5 min, read-out: PLpro activity after preincubation, inhibitor 0.1 uM, preincubation 5 min): 95.7%
- remaining activity at 0.2 µM ([2]; 5 min, read-out: PLpro activity after preincubation, inhibitor 0.2 uM, preincubation 5 min): 105%
- remaining activity at 0.3 µM ([2]; 10 min, read-out: PLpro activity after preincubation, inhibitor 0.3 uM, preincubation 10 min): 30.7%
- remaining activity at 0.3 µM ([2]; 0.5 h, read-out: PLpro activity after preincubation, inhibitor 0.3 uM, preincubation 30 min): 17.7%
- remaining activity at 0.1 µM ([2]; 1 h, read-out: PLpro activity after preincubation, inhibitor 0.1 uM, preincubation 60 min): 74.1%
- remaining activity at 0.2 µM ([2]; 1 h, read-out: PLpro activity after preincubation, inhibitor 0.2 uM, preincubation 60 min): 2.6%
- remaining activity at 0.1 µM ([2]; […], read-out: PLpro activity after preincubation, inhibitor 0.1 uM, preincubation 15 min): 104%
- remaining activity at 0.1 µM ([2]; […], read-out: PLpro activity after preincubation, inhibitor 0.1 uM, preincubation 45 min): 75.3%
- remaining activity at 0.2 µM ([2]; […], read-out: PLpro activity after preincubation, inhibitor 0.2 uM, preincubation 15 min): 59.4%
- remaining activity at 0.2 µM ([2]; […], read-out: PLpro activity after preincubation, inhibitor 0.2 uM, preincubation 90 min): 0.514%
- remaining activity at 0.3 µM ([2]; […], read-out: PLpro activity after preincubation, inhibitor 0.3 uM, preincubation 15 min): 26.7%
- Time dep. (time-dependent inhibition) ([2]; fluorogenic peptide assay, varied preincubation time): Yes
- mean (kobs plot, Supplementary Figure 6 II) ([2]; inhibitor 0.10 uM): 0.00424
- mean (kobs plot, Supplementary Figure 6 II) ([2]; inhibitor 0.20 uM): 0.03867
- mean (kobs plot, Supplementary Figure 6 II) ([2]; inhibitor 0.30 uM): 0.09135
- Measured adduct mass [3]: 474
- Hill slope [4]: 1.34
- pIC50 [5]: < 4.52
- pIC50 [6]: < 4.52
- pIC50 [7]: < 4.52
- pEC50 ([8]; Severe acute respiratory syndrome coronavirus 2, Vero C1008): 7.17
- Percent Cytopathic Effect (Neutral Red) ([8]; 0.01 µM): 90.5%
- Percent Cytopathic Effect (Neutral Red) ([8]; 0.1 µM): 41.8%
- Percent Cytopathic Effect (Neutral Red) ([8]; 1 µM): 46.4%
- Percent Cytopathic Effect (Neutral Red) ([8]; 10 µM): 13.5%
- pEC50 [9]: 6.17
- EC90 [10]: 2400 nM
- CC50 ([11]; Vero E6, 2 μM CP-100356, Delta rows): > 10 µM
- CC50 ([11]; Vero E6, 2 μM CP-100356, Omicron rows): > 10 µM
- CC50 [12]: > 10 µM
- cytotoxicity at 0.01 µM [12]: 6.3%
- cytotoxicity at 0.1 µM [12]: 1.1%
- cytotoxicity at 1 µM [12]: 3.3%
- cytotoxicity at 10 µM [12]: 27.4%
- cytotoxicity at 0.01 µM ([12]; Percent Cytotoxicity (Neutral Red), Vero E6, SARS2-733 (Delta set), 0.01 µM): 11.8%
- cytotoxicity at 0.1 µM ([12]; Percent Cytotoxicity (Neutral Red), Vero E6, SARS2-733 (Delta set), 0.1 µM): 7.1%
- cytotoxicity at 1 µM ([12]; Percent Cytotoxicity (Neutral Red), Vero E6, SARS2-733 (Delta set), 1 µM): 4.8%
- cytotoxicity at 10 µM ([12]; Percent Cytotoxicity (Neutral Red), Vero E6, SARS2-733 (Delta set), 10 µM): 9.3%
- cytotoxicity at 0.01 µM ([12]; Percent Cytotoxicity (Neutral Red), Vero E6, SARS2-735, 0.01 µM): 0%
- cytotoxicity at 0.1 µM ([12]; Percent Cytotoxicity (Neutral Red), Vero E6, SARS2-735, 0.1 µM): 0%
- cytotoxicity at 1 µM ([12]; Percent Cytotoxicity (Neutral Red), Vero E6, SARS2-735, 1 µM): 3.8%
- cytotoxicity at 10 µM ([12]; Percent Cytotoxicity (Neutral Red), Vero E6, SARS2-735, 10 µM): 38.5%
- CC50 [13]: > 10 µM
- cytotoxicity at 0.01 µM [13]: 8.4%
- cytotoxicity at 0.1 µM [13]: 3.4%
- cytotoxicity at 1 µM [13]: 0.326%
- cytotoxicity at 10 µM [13]: 18.1%
- cytotoxicity at 0.01 µM ([13]; Percent Cytotoxicity (Neutral Red), Caco-2, SARS2-740 (Delta set), 0.01 µM): 0%
- cytotoxicity at 0.1 µM ([13]; Percent Cytotoxicity (Neutral Red), Caco-2, SARS2-740 (Delta set), 0.1 µM): 0%
- cytotoxicity at 1 µM ([13]; Percent Cytotoxicity (Neutral Red), Caco-2, SARS2-740 (Delta set), 1 µM): 8%
- cytotoxicity at 10 µM ([13]; Percent Cytotoxicity (Neutral Red), Caco-2, SARS2-740 (Delta set), 10 µM): 4.4%
- cytotoxicity at 0.01 µM ([13]; Percent Cytotoxicity (Neutral Red), Caco-2, SARS2-740 (USA-WA1/2020 set), 0.01 µM): 1.6%
- cytotoxicity at 0.1 µM ([13]; Percent Cytotoxicity (Neutral Red), Caco-2, SARS2-740 (USA-WA1/2020 set), 0.1 µM): 0%
- cytotoxicity at 1 µM ([13]; Percent Cytotoxicity (Neutral Red), Caco-2, SARS2-740 (USA-WA1/2020 set), 1 µM): 0%
- cytotoxicity at 10 µM ([13]; Percent Cytotoxicity (Neutral Red), Caco-2, SARS2-740 (USA-WA1/2020 set), 10 µM): 39.6%
- oral bioavailability / exposure following PO dosing ([14]; 10 mg/kg p.o., male ICR mice): not orally bioavailable
- AUC(0-inf) [14, 18]: 5 ng·h/mL
- AUC(0-t) [14, 18]: 4 ng·h/mL
- C0 [14, 18]: 63 ng/mL
- Vd [14, 18]: 35.2 L/kg
- half-life [14, 18]: 3.6 min
- half-life [15]: 9 min
- microsomal CLint [15]: 266 µL/min/mg
- viability at 48 h, 2.08 µM ([16]; % cell viability, cytotoxicity, 2.08 uM): 100%
- viability at 48 h, 8.33 µM ([16]; % cell viability, cytotoxicity, 8.33 uM): 99.6%
- viability at 48 h, 16.65 µM ([16]; % cell viability, cytotoxicity, 16.65 uM): 95.7%
- CC50 at 48 h ([16]; CC50, uninfected Vero E6 cells): > 30 µM
- % cell viability, cytotoxicity ([17]; 2.08 uM): 98.575%
- % cell viability, cytotoxicity ([17]; 8.33 uM): 99.545%
- % cell viability, cytotoxicity ([17]; 16.65 uM): 90.390%
- CC50 < 30 μM ([17]; uninfected Vero E6 cells, Yes/No): No
